SMILES strings stand for the structures.

The target in one assay is T1, AKT2 (Homo sapiens, UniProt P31751).
T1 construct: expressed in transfected cells; host or cells: HEK293
In words: Live cell target engagement by NanoBRET competitive probe displacement, AKT2. The assay is classed as binding. The conditions noted are these: transfected HEK293 cells, 2 h at 37° C., read-out: AKT2 IC50: GeoMean IC50. On the technique in general: Bioluminescence resonance energy transfer reports proximity on the nanometre scale.

In another assay the target is T2, AKT1 E17K (Homo sapiens, UniProt P31749, E17K).
T2 construct: expressed in transfected cells; host or cells: HEK293
The experiment in a line: Live cell target engagement by NanoBRET competitive probe displacement, AKT1 E17K. The assay is classed as binding. The conditions noted are these: transfected HEK293 cells, 2 h at 37° C., read-out: AKT1 E17K IC50: GeoMean IC50.

Assay [1] has as its system LAPC4 prostate cancer cells, which express the AKT1 E17K allele. The experiment in a line: Antiproliferative effects in LAPC4 cells (CellTiter Glo, 72 h). The assay is classed as cell-based. The settings on record: Homo sapiens, LAPC4, 72 h, read-out: LAPC4 proliferation IC50: GeoMean IC50. In a few lines: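 IC50 values come from Hill-equation fitting of luminescence (cellular ATP) after 72 h compound exposure. Treated wells held 1,000 cells each, with compound delivered as DMSO dilutions. Culture medium was IMDM plus 12% FBS.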

A further assay addresses T3, AKT1 WT (Homo sapiens, UniProt P31749).
T3 construct: expressed in transfected cells; host or cells: HEK293
In words: Live cell target engagement by NanoBRET competitive probe displacement, AKT1 WT. The assay is classed as binding. The conditions noted are these: transfected HEK293 cells, 2 h at 37° C., read-out: AKT1 WT IC50: GeoMean IC50.

T3 sequence (P31749 whole entry): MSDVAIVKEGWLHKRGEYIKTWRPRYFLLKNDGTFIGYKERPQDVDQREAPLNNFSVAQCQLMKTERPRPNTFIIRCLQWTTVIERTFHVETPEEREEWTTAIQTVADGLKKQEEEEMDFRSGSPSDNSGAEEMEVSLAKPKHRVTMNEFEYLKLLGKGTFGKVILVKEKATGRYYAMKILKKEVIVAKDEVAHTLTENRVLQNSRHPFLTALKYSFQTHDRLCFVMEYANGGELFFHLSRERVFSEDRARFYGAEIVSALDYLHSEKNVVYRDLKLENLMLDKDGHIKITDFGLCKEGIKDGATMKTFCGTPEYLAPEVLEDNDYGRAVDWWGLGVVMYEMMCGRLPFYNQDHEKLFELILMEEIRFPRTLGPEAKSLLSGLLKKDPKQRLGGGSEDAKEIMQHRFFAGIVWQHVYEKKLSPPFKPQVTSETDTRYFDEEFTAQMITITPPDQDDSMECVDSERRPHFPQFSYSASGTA
T1 sequence (P31751 whole entry): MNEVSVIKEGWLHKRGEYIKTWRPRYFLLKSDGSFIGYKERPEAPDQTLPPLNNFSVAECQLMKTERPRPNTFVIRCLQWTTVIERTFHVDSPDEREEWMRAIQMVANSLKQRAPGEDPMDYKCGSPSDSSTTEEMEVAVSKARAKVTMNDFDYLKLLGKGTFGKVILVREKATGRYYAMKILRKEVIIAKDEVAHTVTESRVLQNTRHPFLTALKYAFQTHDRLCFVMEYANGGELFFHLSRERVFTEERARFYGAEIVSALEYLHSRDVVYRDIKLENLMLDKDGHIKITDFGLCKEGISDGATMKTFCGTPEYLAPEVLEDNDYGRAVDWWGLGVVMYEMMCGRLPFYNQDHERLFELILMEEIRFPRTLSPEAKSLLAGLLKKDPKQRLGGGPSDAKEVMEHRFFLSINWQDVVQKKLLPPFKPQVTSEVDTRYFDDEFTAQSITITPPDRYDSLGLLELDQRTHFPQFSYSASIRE
T2 sequence (P31749 whole entry E17K): as the sequence (P31749 whole entry) above, with E17K counted along it

With `CS(=O)(=O)Nc1cc(F)c(C(=O)N[C@H]2CCc3cc(-n4c(-c5cccnc5N)nc5ccc(-n6cccn6)nc54)ccc32)cc1C=O` [Example 217, N-[(1S)-5-[2-(2-aminopyridin-3-yl)-5-(pyrazol-1-yl)imidazo[4,5-b]pyridin-3-yl]-2,3-dihydro-1H-inden-1-yl]-2-fluoro-5-formyl-4-methanesulfonamidobenzamide], the IC50 (on AKT2; at AKT1 E17K; in assay [1]; at AKT1 WT) was at least 2000 nM throughout.
For the molecule `[N-]=[N+]=Nc1c(C(=O)N[C@H]2CCc3cc(-n4c(-c5cccnc5N)nc5ccc(-n6cccn6)nc54)ccc32)cc(C=O)c(O)c1F` [Example 218, (S)—N-(5-(2-(2-aminopyridin-3-yl)-5-(1H-pyrazol-1-yl)-3H-imidazo[4,5-b]pyridin-3-yl)-2,3-dihydro-1H-inden-1-yl)-2-azido-3-fluoro-5-formyl-4-hydroxybenzamide], the IC50 (at AKT2; at AKT1 E17K; in assay [1]; at AKT1 WT) was 100 to 2000 nM in each case.
As to `CC1(NC(=O)c2ccc(O)c(C=O)c2)CCc2cc(-n3c(-c4cccnc4N)nc4ccc(-n5cccn5)nc43)ccc21` (centres unmarked) [Example 219, N-(5-(2-(2-aminopyridin-3-yl)-5-(1H-pyrazol-1-yl)-3H-imidazo[4,5-b]pyridin-3-yl)-1-methyl-2,3-dihydro-1H-inden-1-yl)-3-formyl-4-hydroxybenzamide], the IC50 was 100 to 2000 nM at AKT2, at least 2000 nM on AKT1 E17K, at least 2000 nM in assay [1] and 100 to 2000 nM on AKT1 WT.
In the case of `Cc1cc(-n2cccn2)nc2c1nc(-c1cccnc1N)n2-c1ccc2c(c1)CC[C@@H]2n1cnc2cc(O)c(C=O)cc2c1=O` [Example 220, (S)-3-(5-(2-(2-aminopyridin-3-yl)-7-methyl-5-(1H-pyrazol-1-yl)-3H-imidazo[4,5-b]pyridin-3-yl)-2,3-dihydro-1H-inden-1-yl)-7-hydroxy-4-oxo-3,4-dihydroquinazoline-6-carbaldehyde], the IC50 (at AKT2; on AKT1 E17K; in assay [1]; at AKT1 WT) was 100 to 2000 nM each time.
Consider `COc1cc(-n2cccn2)nc2c1nc(-c1cccnc1N)n2-c1ccc2c(c1)CC[C@@H]2NC(=O)c1cc(C=O)c(O)cc1F` [Example 221, N-[(1S)-5-[2-(2-aminopyridin-3-yl)-7-methoxy-5-(pyrazol-1-yl)imidazo[4,5-b]pyridin-3-yl]-2,3-dihydro-1H-inden-1-yl]-2-fluoro-5-formyl-4-hydroxybenzamide], for which the IC50 at AKT2 lay in the range of 100 to 2000 nM; at AKT1 E17K, 10 to 100 nM; in assay [1], 10 to 100 nM; at AKT1 WT, 10 to 100 nM.
`COc1cc(-n2cccn2)nc2c1nc(-c1cccnc1N)n2-c1ccc2c(c1)CC[C@@H]2NC(=O)c1cc(C=O)c(O)c(F)c1F` [Example 222, N-[(1S)-5-[2-(2-aminopyridin-3-yl)-7-methoxy-5-(pyrazol-1-yl)imidazo[4,5-b]pyridin-3-yl]-2,3-dihydro-1H-inden-1-yl]-2,3-difluoro-5-formyl-4-hydroxybenzamide]: the IC50 (on AKT2; on AKT1 E17K; in assay [1]; on AKT1 WT) was 10 to 100 nM throughout.
As to `CN1CCN(c2cc(-n3cccn3)nc3c2nc(-c2cccnc2N)n3-c2ccc3c(c2)CC[C@@H]3NC(=O)c2ccc(O)c(C=O)c2)CC1` [Example 223, N-[(1S)-5-[2-(2-aminopyridin-3-yl)-7-(4-methylpiperazin-1-yl)-5-(pyrazol-1-yl)imidazo[4,5-b]pyridin-3-yl]-2,3-dihydro-1H-inden-1-yl]-3-formyl-4-hydroxybenzamide], the IC50 on AKT2 lay in the range of 100 to 2000 nM; on AKT1 E17K, 10 to 100 nM; in assay [1], 100 to 2000 nM; at AKT1 WT it was 100 to 2000 nM.
With `Nc1ncccc1-c1nc2c(N3CCOCC3)cc(-n3cccn3)nc2n1-c1ccc2c(c1)CC[C@@H]2NC(=O)c1ccc(O)c(C=O)c1` [Example 224, N-[(1S)-5-[2-(2-aminopyridin-3-yl)-7-(morpholin-4-yl)-5-(pyrazol-1-yl)imidazo[4,5-b]pyridin-3-yl]-2,3-dihydro-1H-inden-1-yl]-3-formyl-4-hydroxybenzamide], the IC50 lay in the range of 100 to 2000 nM at AKT2, 10 to 100 nM at AKT1 E17K, 10 to 100 nM in assay [1] and 10 to 100 nM at AKT1 WT.
In the case of `Nc1ncccc1-c1nc2c(OC(F)F)cc(-n3cccn3)nc2n1-c1ccc2c(c1)CC[C@@H]2NC(=O)c1ccc(O)c(C=O)c1` [Example 225, N-[(1S)-5-[2-(2-aminopyridin-3-yl)-7-(difluoromethoxy)-5-(pyrazol-1-yl)imidazo[4,5-b]pyridin-3-yl]-2,3-dihydro-1H-inden-1-yl]-3-formyl-4-hydroxybenzamide], the IC50 lay in the range of 100 to 2000 nM at AKT2, 10 to 100 nM at AKT1 E17K, 10 to 100 nM in assay [1] and 10 to 100 nM on AKT1 WT.
Regarding `Nc1ncccc1-c1nc2cc(O)c(-n3cccn3)nc2n1-c1ccc2c(c1)CC[C@@H]2NC(=O)c1cc(C=O)c(O)cc1F` [Example 226, N-[(1S)-5-[2-(2-aminopyridin-3-yl)-6-hydroxy-5-(pyrazol-1-yl)imidazo[4,5-b]pyridin-3-yl]-2,3-dihydro-1H-inden-1-yl]-2-fluoro-5-formyl-4-hydroxybenzamide], the IC50 on AKT2 fell in the range of 100 to 2000 nM; at AKT1 E17K, 10 to 100 nM; in assay [1], 10 to 100 nM; at AKT1 WT, 10 to 100 nM.
In the case of `Cc1cc(-n2nccn2)nc2c1nc(-c1cccnc1N)n2-c1ccc2c(c1)CC[C@@H]2NC(=O)c1cc(C=O)c(O)c(F)c1F` [Example 227, N-[(1S)-5-[2-(2-aminopyridin-3-yl)-7-methyl-5-(1,2,3-triazol-2-yl)imidazo[4,5-b]pyridin-3-yl]-2,3-dihydro-1H-inden-1-yl]-2,3-difluoro-5-formyl-4-hydroxybenzamide], the IC50 on AKT2 was in the range of 100 to 2000 nM; at AKT1 E17K, 10 to 100 nM; in assay [1], 10 to 100 nM; on AKT1 WT, 10 to 100 nM.
For the molecule `CN(C)c1cc(C(=O)N[C@H]2CCc3cc(-n4c(-c5cccnc5N)nc5ccc(-n6cccn6)nc54)ccc32)cc(C=O)c1O` [Example 228, N-[(1S)-5-[2-(2-aminopyridin-3-yl)-5-(pyrazol-1-yl)imidazo[4,5-b]pyridin-3-yl]-2,3-dihydro-1H-inden-1-yl]-3-(dimethylamino)-5-formyl-4-hydroxybenzamide], the IC50 at AKT2 is at least 2000 nM; on AKT1 E17K it was 10 to 100 nM; in assay [1], 100 to 2000 nM; at AKT1 WT, 100 to 2000 nM.
For `Cc1cc2nc(-c3cccnc3N)n(-c3ccc4c(c3)CC[C@@H]4NC(=O)c3ccc(O)c(C=O)c3)c2nc1-n1cccn1` [Example 229, (S)—N-(5-(2-(2-aminopyridin-3-yl)-6-methyl-5-(1H-pyrazol-1-yl)-3H-imidazo[4,5-b]pyridin-3-yl)-2,3-dihydro-1H-inden-1-yl)-3-formyl-4-hydroxybenzamide], the IC50 fell in the range of 100 to 2000 nM on AKT2, 10 to 100 nM at AKT1 E17K, 100 to 2000 nM in assay [1] and 100 to 2000 nM on AKT1 WT.
`Nc1ncccc1-c1nc2c(C3CC3)cc(-n3cccn3)nc2n1-c1ccc2c(c1)CC[C@@H]2NC(=O)c1ccc(O)c(C=O)c1` [Example 230, N-[(1S)-5-[2-(2-aminopyridin-3-yl)-7-cyclopropyl-5-(pyrazol-1-yl)imidazo[4,5-b]pyridin-3-yl]-2,3-dihydro-1H-inden-1-yl]-3-formyl-4-hydroxybenzamide]: the IC50 on AKT2 lay in the range of 100 to 2000 nM; at AKT1 E17K, 10 to 100 nM; in assay [1] it was 100 to 2000 nM; at AKT1 WT it was 10 to 100 nM.
Regarding `Nc1ncccc1-c1nc2c(N3CCC3)cc(-n3cccn3)nc2n1-c1ccc2c(c1)CC[C@@H]2NC(=O)c1ccc(O)c(C=O)c1` [Example 231, N-[(1S)-5-[2-(2-aminopyridin-3-yl)-7-(azetidin-1-yl)-5-(pyrazol-1-yl)imidazo[4,5-b]pyridin-3-yl]-2,3-dihydro-1H-inden-1-yl]-3-formyl-4-hydroxybenzamide], the IC50 was in the range of 100 to 2000 nM on AKT2, 10 to 100 nM on AKT1 E17K, 100 to 2000 nM in assay [1] and 10 to 100 nM at AKT1 WT.
Regarding `CS(=O)(=O)Nc1cc(-n2cccn2)nc2c1nc(-c1cccnc1N)n2-c1ccc2c(c1)CC[C@@H]2NC(=O)c1ccc(O)c(C=O)c1` [Example 232, N-[(1S)-5-[2-(2-aminopyridin-3-yl)-7-methanesulfonamido-5-(pyrazol-1-yl)imidazo[4,5-b]pyridin-3-yl]-2,3-dihydro-1H-inden-1-yl]-3-formyl-4-hydroxybenzamide], the IC50 (at AKT2; at AKT1 E17K; in assay [1]; at AKT1 WT) was at least 2000 nM throughout.
On to `Nc1ncccc1-c1nc2c(-n3cn[nH]c3=O)cc(-n3cccn3)nc2n1-c1ccc2c(c1)CC[C@@H]2NC(=O)c1ccc(O)c(C=O)c1` [Example 233, N-[(1S)-5-[2-(2-aminopyridin-3-yl)-7-(3-oxo-2H-1,2,4-triazol-4-yl)-5-(pyrazol-1-yl)imidazo[4,5-b]pyridin-3-yl]-2,3-dihydro-1H-inden-1-yl]-3-formyl-4-hydroxybenzamide], for which the IC50 (on AKT2; on AKT1 E17K; in assay [1]; at AKT1 WT) was 100 to 2000 nM in each case.

These data come from patent US20260053834A1, “COVALENT MODIFIERS OF AKT1 AND USES THEREOF” (Terremoto Biosciences, Inc., priority 2023, published 2026).
